From patent publication US20250255867A1 (Kadmon Corporation, LLC, priority 2022, published 2025)

Conditions: Cohort 2 200 mg BID

## CC(C)NC(=O)COc1cccc(-c2nc(Nc3ccc4[nH]ncc4c3)c3ccccc3n2)c1 [Belumosudil, 2-{3-[4-(1H-indazol-5-ylamino)-2-quinazolinyl]phenoxy}-N-(propan-2-yl) acetamide]
  Aspartate aminotransferase increased: Affected/At Risk (%): (12.5%)
  Asthenia: # Events: 1
  Asthenia: Affected/At Risk: 1/16
  Asthenia: Affected/At Risk (%): (6.25%)
  Atelectasis: # Events: 0
  Atelectasis: Affected/At Risk: 0/16
  Atelectasis: Affected/At Risk (%): (0%)
  Back pain: # Events: 2
  Back pain: Affected/At Risk: 2/16
  Back pain: Affected/At Risk (%): (12.5%)
  Balance disorder: # Events: 1
  Balance disorder: Affected/At Risk: 1/16
  Balance disorder: Affected/At Risk (%): (6.25%)
  Basal cell carcinoma: # Events: 1
  Basal cell carcinoma: Affected/At Risk: 1/16
  Basal cell carcinoma: Affected/At Risk (%): (6.25%)
  Benign prostatic hyperplasia: # Events: 0
  Benign prostatic hyperplasia: Affected/At Risk: 0/16
  Benign prostatic hyperplasia: Affected/At Risk (%): (0%)
  Blepharitis: # Events: 0
  Blepharitis: Affected/At Risk: 0/16
  Blepharitis: Affected/At Risk (%): (0%)
  Blister: # Events: 3
  Blister: Affected/At Risk: 2/16
  Blister: Affected/At Risk (%): (12.5%)
  Blood alkaline phosphatase increased: # Events: 1
  Blood alkaline phosphatase increased: Affected/At Risk: 1/16
  Blood alkaline phosphatase increased: Affected/At Risk (%): (6.25%)
  Blood chloride decreased: # Events: 1
  Blood chloride decreased: Affected/At Risk: 1/16
  Blood chloride decreased: Affected/At Risk (%): (6.25%)
  Blood cholesterol increased: # Events: 0
  Blood cholesterol increased: Affected/At Risk: 0/16
  Blood cholesterol increased: Affected/At Risk (%): (0%)
  Blood creatine increased: # Events: 1
  Blood creatine increased: Affected/At Risk: 1/16
  Blood creatine increased: Affected/At Risk (%): (6.25%)
  Blood creatine phosphokinase increased: # Events: 0
  Blood creatine phosphokinase increased: Affected/At Risk: 0/16
  Blood creatine phosphokinase increased: Affected/At Risk (%): (0%)
  Blood creatinine increased: # Events: 1
  Blood creatinine increased: Affected/At Risk: 1/16
  Blood creatinine increased: Affected/At Risk (%): (6.25%)
  Blood loss anaemia: # Events: 0
  Blood loss anaemia: Affected/At Risk: 0/16
  Blood loss anaemia: Affected/At Risk (%): (0%)
  Bronchial secretion retention: # Events: 1
  Bronchial secretion retention: Affected/At Risk: 1/16
  Bronchial secretion retention: Affected/At Risk (%): (6.25%)
  Bronchitis: # Events: 0
  Bronchitis: Affected/At Risk: 0/16
  Bronchitis: Affected/At Risk (%): (0%)
  Bronchoscopy: # Events: 0
  Bronchoscopy: Affected/At Risk: 0/16
  Bronchoscopy: Affected/At Risk (%): (0%)
  Catheter site haemorrhage: # Events: 0
  Catheter site haemorrhage: Affected/At Risk: 0/16
  Catheter site haemorrhage: Affected/At Risk (%): (0%)
  Chills: # Events: 1
  Chills: Affected/At Risk: 1/16
  Chills: Affected/At Risk (%): (6.25%)
  Chronic kidney disease: # Events: 0
  Chronic kidney disease: Affected/At Risk: 0/16
  Chronic kidney disease: Affected/At Risk (%): (0%)
  Conjunctival haemorrhage: # Events: 1
  Conjunctival haemorrhage: Affected/At Risk: 1/16
  Conjunctival haemorrhage: Affected/At Risk (%): (6.25%)
  Conjunctivitis: # Events: 1
  Conjunctivitis: Affected/At Risk: 1/16
